Columns and labels:
tactile allodynia [1] = assay: Partial Sciatic Ligation (PSL) Surgery/Tactile Allodynia; type: in vivo, mice
tactile allodynia [2] = assay: CCI/Tactile Allodynia (von Frey hairs); type: in vivo; settings: CCI rats
Procedure: (§1) Rats were anesthetized under aseptic and heated conditions using a combination of 1.6 ml ketamine (100 mg/ml) and 1.6 ml xylazine (100 mg/ml) in 6.8 ml 0.9% saline at a volume of 0.1 ml/100 g. The left quadriceps was shaved and scrubbed thoroughly with an iodine solution. The sciatic nerve was exposed at the level of the sciatic notch distally to the sciatic trifurcation. The nerve was very carefully freed from the underlying muscle and connective tissue without causing trauma to the nerve itself. Using 4-0 chromic catgut suture material, four semi-loose ligatures were tied around the sciatic nerve starting at the most proximal level, next to the sciatic notch, spaced roughly 1 mm apart and ending proximal to the sciatic trifurcation. […] The muscular incision was closed with 4-0 silk suture material and the skin was stapled with wound clips. The animals were closely observed until they recovered completely from the anesthetic. The surgery was the same for the hyperalgesia and allodynia experiments.
The onset and duration of significant mechanical allodynia post CCI surgery is approximately 10-14 days and lasts for roughly two months. Within this allodynic time frame, and for each specific allodynia experiment, pre and post drug administration measurements were taken with seven von Frey hairs which are designated by log (10* force required to bend hair, mg) and ranged from 2-26 grams (#'s 4.31-5.46). Each hair was pressed perpendicularly against the left injured plantar mid-hind paw surface with sufficient force to cause a slight bending, and was held for 6-8 seconds starting with the thinnest gauged hair and working up to the thickest. A positive response was recorded when the injured paw was sharply withdrawn, and this response was confirmed as positive by testing the next thickest gauged hair for the same response. Only when a response was seen twice was the score accepted. If the maximum gram force of 26 was reached without a response, this was considered the peak threshold cutoff for allodynic behavior and the score was recorded. Animals were considered allodynic when the post surgery baseline measurements were 6 grams and below. Two baseline days of measurements were taken with one round of testing occurring per day. On the day of drug testing, one round of baseline measurements were taken, the appropriate pretreatment was administered i.p. and a second round of measurements were recorded. Each animal was utilized in multiple experiments, with one treatment per experiment, and an appropriate washout period in between experiments.

M(2) muscarinic receptor = molecular target: T1, M(2) muscarinic receptor (Homo sapiens, UniProt P08172); assay: R-SAT functional receptor assay, M(2); type: cell-based; settings: R-SAT
T1 construct: expressed in transfected cells
T1 sequence (P08172 1-466): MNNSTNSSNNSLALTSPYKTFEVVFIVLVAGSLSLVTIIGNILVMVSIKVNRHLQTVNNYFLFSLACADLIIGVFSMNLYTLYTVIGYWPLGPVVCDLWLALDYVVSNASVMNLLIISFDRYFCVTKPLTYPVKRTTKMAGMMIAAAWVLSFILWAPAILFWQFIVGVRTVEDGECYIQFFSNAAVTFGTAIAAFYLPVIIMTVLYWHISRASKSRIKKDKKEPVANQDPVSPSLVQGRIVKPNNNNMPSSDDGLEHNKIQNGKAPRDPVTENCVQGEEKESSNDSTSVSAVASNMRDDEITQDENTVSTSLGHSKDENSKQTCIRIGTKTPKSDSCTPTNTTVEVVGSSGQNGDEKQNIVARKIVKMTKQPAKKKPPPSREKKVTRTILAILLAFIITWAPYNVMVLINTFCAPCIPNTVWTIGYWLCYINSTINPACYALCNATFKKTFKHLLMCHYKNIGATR
Description: (§2) The functional receptor assay, Receptor Selection and Amplification Technology (R-SAT), essentially as disclosed in U.S. Pat. Nos. 5,707,798, 5,912,132, and 5,955,281, which are all hereby incorporated by reference in their entirety, was used to investigate the pharmacological properties of known and novel muscarinic agonists.

thermal hyperalgesia = assay: CCI/Thermal Hyperalgesia (paw withdrawal latency to radiant heat); type: in vivo; settings: CCI rats
Procedure: as §1
For hyperalgesia testing, rats were placed in a tinted plastic box on top of a clear glass, temperature-regulated floor maintained at 31±1° C. The floor contained a focal radiant heat source (halogen projection lamp CXL/CXP, 50 W, 8 v, USHIO, Tokyo).
To initiate the test, rats were placed in the tinted boxes and allowed 10-20 minutes to acclimate to the new environment. The radiant heat source was then positioned under the plantar surface of the hind paw. Upon activation of the heat source, a timer was simultaneously triggered. Upon reflex movement of the hind paw, a motion sensor was activated stopping the timer and inactivating the heat source. The thermal source was adjusted so that the average response latency for an uninjured animal was no greater than 20 seconds. Each rat had two days of pre-operative baseline latency measurements in which the left rear hind paw plantar surface was measured three to four times. Two to three left postoperative baseline latency measurements were taken before and after the treatment was given. Postoperative day 2 and 4 measurements yielded the greatest degree of hyperalgesia and thus were utilized in this assay. Each animal was tested twice with at least 48 hours separating each test.
Thermal hyperalgesia developed in the surgical-treated left paw as evidenced by a decrease in paw withdrawal latencies to a thermal stimulus. The maximal hyperalgesia occurred on post-operative days 2 through 4. Paw withdrawal latencies on the surgically-treated left side gradually returned to baseline levels over the course of 5 to 12 days post-surgery.

acute thermal pain = assay: Acute Thermal Analgesia (tail withdrawal from 55° C. water); type: in vivo; settings: rats; 55° C. water
Procedure: Water was heated and maintained at 55° C.±1° C. with a probe regulated hot plate. Female rats weighing approximately 200 g -250 g were acclimated days in advance by placing them into and removing them from a plastic rat restrainer. On the day of the experiment each rat was placed in the restrainer 1 minute before the test was performed. Roughly one inch of the tail was submerged into the water as a timer was initiated. Once the tail was completely removed from the water, the timer was stopped and the time was recorded. […] One round of baseline measurements were collected. The test compound was administered and after the appropriate pretreatment interval, the procedure was repeated. Each animal was utilized in multiple experiments, with one treatment per experiment, and an appropriate washout period of at least 48 hours between experiments. The pre-treatment baseline tail withdrawal latency average was 2.281 s±0.25. […] At a dose of 10 mg/kg, morphine [F(3,23)=5.903, p<0.01] was antinociceptive.

M(1) muscarinic receptor = molecular target: T2, M(1) muscarinic receptor (Homo sapiens, UniProt P11229); assay: R-SAT functional receptor assay, M(1); type: cell-based; settings: R-SAT
T2 construct: expressed in transfected cells
T2 sequence (P11229 1-460): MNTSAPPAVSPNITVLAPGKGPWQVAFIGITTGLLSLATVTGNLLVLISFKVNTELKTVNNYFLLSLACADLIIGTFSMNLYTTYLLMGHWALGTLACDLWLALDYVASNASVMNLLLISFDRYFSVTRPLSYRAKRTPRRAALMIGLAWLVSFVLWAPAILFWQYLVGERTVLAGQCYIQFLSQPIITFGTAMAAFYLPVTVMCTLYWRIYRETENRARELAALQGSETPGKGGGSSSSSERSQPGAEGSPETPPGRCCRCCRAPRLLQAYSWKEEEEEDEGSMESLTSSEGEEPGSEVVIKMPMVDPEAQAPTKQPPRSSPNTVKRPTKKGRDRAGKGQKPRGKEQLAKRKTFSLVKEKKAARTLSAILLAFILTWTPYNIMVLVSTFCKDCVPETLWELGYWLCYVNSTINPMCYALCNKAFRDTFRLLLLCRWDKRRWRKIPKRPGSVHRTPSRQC
Description: as §2

SMILES: CCCCC1CCN(CCCN2C(=O)COc3cc(F)ccc32)CC1 [Formula (IX)]
- effect on tactile allodynia after PSL, in words (tactile allodynia [1]; M(1) receptor knockout (KO) mice, 30 mg/kg): completely abolished
- effect on tactile allodynia after PSL, in words (tactile allodynia [1]; mice, intracerebroventricular (i.c.v.) administration): significantly reversed tactile allodynia
- effect on tactile allodynia after PSL, in words (tactile allodynia [1]; wild type (WT) mice, 30 mg/kg): significantly alleviated the tactile allodynia
- Antiallodynic, minimal effective dose (tactile allodynia [2]): 17.8 mg/kg
- dose that reversed tactile allodynia (tactile allodynia [2]; i.p., post-hoc comparison): 17.8 mg/kg
- agonist character at M(2) receptor, in words (M(2) muscarinic receptor): weak partial agonists
- EC50 (M(2) muscarinic receptor; read-out: M2 pEC50 (converted)): 501 nM
- Emax (M(2) muscarinic receptor; relative to carbachol, read-out: M2 % efficacy): 48%
- Antihyperalgesic, minimal effective dose (thermal hyperalgesia): 10.0 mg/kg
- dose that significantly reversed thermal hyperalgesia (thermal hyperalgesia; post-hoc comparison relative to vehicle): 10 mg/kg
- alleviating acute thermal pain, in words (acute thermal pain): not active
- agonist character at M(1) receptor, in words (M(1) muscarinic receptor): potent and efficacious M(1) agonist
- EC50 (M(1) muscarinic receptor; read-out: M1 pEC50 (converted)): 31.6 nM
- Emax (M(1) muscarinic receptor; relative to carbachol, read-out: M1 % efficacy): 79%
